Entries after “also recorded” stand apart in the source; their conditions may differ. Structures can show the parent of a compound that is named as a salt.
Columns and labels:
[1] = tested on: SARS-CoV-2 Omicron BA.5; assay: Viral load reduction assay; type: cell-based; conditions: Fig. S7
[2] = tested on: VeroE6 cells; assay: Cellular bismuth uptake; type: cell-based, African green monkey; conditions: 24 hours, ICP-MS
[3] = tested on: SARS-CoV-2; conditions: read-out: EC50 (antiviral activity); previously reported; cited from earlier work

SMILES	antiviral activity in virus-infected cells [1]	cellular uptake of Bi(III) [2]	EC50 [3]
Nc1ccc([O-])c(=O)cc1.Nc1ccc([O-])c(=O)cc1.Nc1ccc([O-])c(=O)cc1.[Bi+3] [Bi(Tro-NH2)3, Bi(5-aminotropolonate)3]	did not show antiviral activity as good as that at the enzyme level; also recorded: did not show potent antiviral activity in virus-infected cells	poor cellular uptake of Bi(III)	
CNC(=C[N+](=O)[O-])NCCSCc1ccc(CN(C)C)o1 [RBC, ranitidine bismuth citrate]			2.3 µM
